Measured values reported in ChEMBL document CHEMBL1136657, “Novel ether derivatives of mannopeptimycin glycopeptide antibiotic” (2003).
Values after ≈ are worked out from the molar mass of the structure shown.

How the values were obtained:
Bacillus cereus = assay: Minimum inhibitory concentration against Bacillus cereus (GC 4561) was determined; type: functional
Escherichia coli [1] = assay: Minimum inhibitory concentration against Escherichia coli (GC 2203) was determined; type: functional
Enterococcus faecalis [2] = assay: Minimum inhibitory concentration against Enterococcus faecalis (GC 2242) was determined; type: functional
Enterococcus faecalis [3] = assay: Minimum inhibitory concentration against Enterococcus faecalis (GC 2691) was determined; type: functional
Enterococcus avium = assay: Minimum inhibitory concentration against Enterococcus avium (GC 4558) was determined; type: functional
Enterococcus faecalis [4] = assay: Minimum inhibitory concentration against Enterococcus faecalis (GC 4552) was determined; type: functional
Enterococcus faecalis [5] = assay: Minimum inhibitory concentration against Enterococcus faecalis (GC 4553) was determined; type: functional
Enterococcus faecalis [6] = assay: Minimum inhibitory concentration against Enterococcus faecalis (GC 4554) was determined; type: functional
Escherichia coli [7] = assay: Minimum inhibitory concentration against Escherichia coli (GC 4560) was determined; type: functional
Escherichia coli [8] = assay: Minimum inhibitory concentration against Escherichia coli (GC 4564) was determined; type: functional
Enterococcus faecium [9] = assay: Minimum inhibitory concentration against Enterococcus faecium (GC 2243) was determined; type: functional
Enterococcus faecium [10] = assay: Minimum inhibitory concentration against Enterococcus faecium (GC 4556) was determined; type: functional
Enterococcus faecium [11] = assay: Minimum inhibitory concentration against Enterococcus faecium (GC 4557) was determined; type: functional
Enterococcus faecalis [12] = assay: Minimum inhibitory concentration against Enterococcus faecalis (GC 4555) was determined; type: functional
Enterococcus faecalis [13] = assay: Minimum inhibitory concentration against Enterococcus faecalis (GC 6189) was determined; type: functional
Morganella morganii = assay: Minimum inhibitory concentration against Morganella morganii (GC 4381) was determined; type: functional
Pseudomonas aeruginosa = assay: Minimum inhibitory concentration against Pseudomonas aeruginosa (GC 2214) control was determined; type: functional
Micrococcus luteus = assay: Minimum inhibitory concentration against Sarcina lutea (GC 4562) was determined; type: functional
[14] = Minimum inhibitory concentration against SCN (GC 4548) was determined; type: functional
[15] = Minimum inhibitory concentration against SCN (GC 4549) was determined; type: functional
[16] = Minimum inhibitory concentration against SCN (GC 4551) was determined; type: functional
[17] = Minimum inhibitory concentration against SCN (GC 6257) was determined; type: functional
[18] = Minimum inhibitory concentration against SCN (GC 4547) was determined; type: functional
Streptococcus pyogenes = assay: Minimum inhibitory concentration against Streptococcus pyogenes (GC 4563) was determined; type: functional
Streptococcus agalactiae = assay: Minimum inhibitory concentration against Streptococcus agalactiae (GC4564) was determined; type: functional
Streptococcus pneumoniae [19] = assay: Minimum inhibitory concentration against Streptococcus pneumoniae (GC 1894) was determined; type: functional
Streptococcus pneumoniae [20] = assay: Minimum inhibitory concentration against Streptococcus pneumoniae (GC 4565) was determined; type: functional
Streptococcus pneumoniae [21] = assay: Minimum inhibitory concentration against Streptococcus pneumoniae (GC 6242) was determined; type: functional
Staphylococcus aureus [22] = assay: Minimum inhibitory concentration against Staphylococcus aureus (GC 1131) was determined; type: functional
Staphylococcus aureus [23] = assay: Minimum inhibitory concentration against Staphylococcus aureus (GC 2216) was determined; type: functional
Staphylococcus aureus [24] = assay: Minimum inhibitory concentration against Staphylococcus aureus (GC 3051) was determined; type: functional
Staphylococcus aureus [25] = assay: Minimum inhibitory concentration against Staphylococcus aureus (GC 3066) was determined; type: functional
Staphylococcus aureus [26] = assay: Minimum inhibitory concentration against Staphylococcus aureus (GC 4541 was determined; type: functional
Staphylococcus aureus [27] = assay: Minimum inhibitory concentration against Staphylococcus aureus (GC 4542) was determined; type: functional
Staphylococcus aureus [28] = assay: Minimum inhibitory concentration against Staphylococcus aureus (GC 4543) was determined; type: functional
Staphylococcus aureus [29] = assay: Minimum inhibitory concentration against Staphylococcus aureus (GC 4544) was determined; type: functional
Staphylococcus aureus [30] = assay: Minimum inhibitory concentration against Staphylococcus aureus (GC 4545) was determined; type: functional
Enterococcus faecalis [31] = assay: Minimum inhibitory concentration against Enterococcus faecalis (GC 3059) was determined; type: functional
Candida albicans = assay: Minimum inhibitory concentration against Candida albicans GC 3066 was determined; type: functional
[32] = test system: Staphylococcus haemolyticus; assay: Minimum inhibitory concentration against Staphylococcus haemolyticus (GC 4546) was determined

| MIC (Bacillus cereus) | MIC (Escherichia coli [1]) | MIC (Enterococcus faecalis [2]) | MIC (Enterococcus faecalis [3]) | MIC (Enterococcus avium) | MIC (Enterococcus faecalis [4]) | MIC (Enterococcus faecalis [5]) | MIC (Enterococcus faecalis [6]) | MIC (Escherichia coli [7]) | MIC (Escherichia coli [8]) | MIC (Enterococcus faecium [9]) | MIC (Enterococcus faecium [10]) | MIC (Enterococcus faecium [11]) | MIC (Enterococcus faecalis [12]) | MIC (Enterococcus faecalis [13]) | MIC (Morganella morganii) | MIC (Pseudomonas aeruginosa) | MIC (Micrococcus luteus) | MIC [14] | MIC [15] | SMILES | further results |
| --- | --- | --- | --- | --- | --- | --- | --- | --- | --- | --- | --- | --- | --- | --- | --- | --- | --- | --- | --- | --- | --- |
| 2 µg/mL (≈ 1.38 µM) | 128 µg/mL (≈ 88.2 µM) | 8 µg/mL (≈ 5.51 µM) | 8 µg/mL (≈ 5.51 µM) | 2 µg/mL (≈ 1.38 µM) | 8 µg/mL (≈ 5.51 µM) | 8 µg/mL (≈ 5.51 µM) | 8 µg/mL (≈ 5.51 µM) | 1 µg/mL (≈ 0.689 µM) | 128 µg/mL (≈ 88.2 µM) | 8 µg/mL (≈ 5.51 µM) | 8 µg/mL (≈ 5.51 µM) | 0.25 µg/mL (≈ 0.172 µM) | 8 µg/mL (≈ 5.51 µM) | 4 µg/mL (≈ 2.76 µM) | > 128 µg/mL | > 128 µg/mL | 0.25 µg/mL (≈ 0.172 µM) | 1 µg/mL (≈ 0.689 µM) | 1 µg/mL (≈ 0.689 µM) | COc1ccc2cc(CO[C@H]3[C@H](O)[C@@H](CO)OC(O[C@H]4[C@H](O)[C@H](O)[C@@H](Oc5ccc(C[C@H]6NC(=O)[C@H]([C@@H](C)c7ccccc7)NC(=O)CNC(=O)[C@H](CO)NC(=O)[C@@H]([C@@H](O)[C@@H]7CN=C(N)N7[C@H]7O[C@H](O)[C@@H](O)[C@H](O)[C@@H]7O)NC(=O)[C@H]([C@@H](O)[C@@H]7CN=C(N)N7)NC6=O)cc5)O[C@@H]4CO)[C@H]3O)ccc2c1 (stereo not given in full) | MIC [16]: 2 µg/mL (≈ 1.38 µM); MIC [17]: 1 µg/mL (≈ 0.689 µM); MIC [18]: 2 µg/mL (≈ 1.38 µM); MIC (Streptococcus pyogenes): 0.5 µg/mL (≈ 0.344 µM); MIC (Streptococcus agalactiae): 0.5 µg/mL (≈ 0.344 µM); MIC (Streptococcus pneumoniae [19]): 0.12 µg/mL (≈ 0.0827 µM); MIC (Streptococcus pneumoniae [20]): 0.25 µg/mL (≈ 0.172 µM); MIC (Streptococcus pneumoniae [21]): 0.25 µg/mL (≈ 0.172 µM); MIC (Staphylococcus aureus [22]): 4 µg/mL (≈ 2.76 µM); MIC (Staphylococcus aureus [23]): 2 µg/mL (≈ 1.38 µM); MIC (Staphylococcus aureus [24]): 2 µg/mL (≈ 1.38 µM); MIC (Staphylococcus aureus [25]): 2 µg/mL (≈ 1.38 µM); MIC (Staphylococcus aureus [26]): 2 µg/mL (≈ 1.38 µM); MIC (Staphylococcus aureus [27]): 1 µg/mL (≈ 0.689 µM); MIC (Staphylococcus aureus [28]): 2 µg/mL (≈ 1.38 µM); MIC (Staphylococcus aureus [29]): 4 µg/mL (≈ 2.76 µM); MIC (Staphylococcus aureus [30]): 2 µg/mL (≈ 1.38 µM); MIC (Enterococcus faecalis [31]): 8 µg/mL (≈ 5.51 µM); MIC (Candida albicans): > 64 µg/mL; MIC [32]: 1 µg/mL (≈ 0.689 µM) |
| 128 µg/mL (≈ 88.2 µM) | > 128 µg/mL | > 128 µg/mL | > 128 µg/mL | 128 µg/mL (≈ 88.2 µM) | > 128 µg/mL | 128 µg/mL (≈ 88.2 µM) | > 128 µg/mL | 32 µg/mL (≈ 22 µM) | > 128 µg/mL | 128 µg/mL (≈ 88.2 µM) | > 128 µg/mL | 32 µg/mL (≈ 22 µM) | > 128 µg/mL | > 128 µg/mL | > 128 µg/mL | > 128 µg/mL | 16 µg/mL (≈ 11 µM) | 64 µg/mL (≈ 44.1 µM) | 64 µg/mL (≈ 44.1 µM) | COc1ccc2cc(CO[C@@H]3[C@@H](O[C@H]4[C@H](O)[C@H](O)[C@@H](Oc5ccc(C[C@H]6NC(=O)[C@H]([C@@H](C)c7ccccc7)NC(=O)CNC(=O)[C@H](CO)NC(=O)[C@@H]([C@@H](O)[C@@H]7CN=C(N)N7[C@H]7O[C@H](O)[C@@H](O)[C@H](O)[C@@H]7O)NC(=O)[C@H]([C@@H](O)[C@@H]7CN=C(N)N7)NC6=O)cc5)O[C@@H]4CO)O[C@H](CO)[C@@H](O)[C@@H]3O)ccc2c1 | MIC [16]: 64 µg/mL (≈ 44.1 µM); MIC [17]: 32 µg/mL (≈ 22 µM); MIC [18]: 64 µg/mL (≈ 44.1 µM); MIC (Streptococcus pyogenes): 64 µg/mL (≈ 44.1 µM); MIC (Streptococcus agalactiae): 32 µg/mL (≈ 22 µM); MIC (Streptococcus pneumoniae [19]): 16 µg/mL (≈ 11 µM); MIC (Streptococcus pneumoniae [20]): 32 µg/mL (≈ 22 µM); MIC (Streptococcus pneumoniae [21]): 32 µg/mL (≈ 22 µM); MIC (Staphylococcus aureus [22]): 128 µg/mL (≈ 88.2 µM); MIC (Staphylococcus aureus [23]): 128 µg/mL (≈ 88.2 µM); MIC (Staphylococcus aureus [24]): 128 µg/mL (≈ 88.2 µM); MIC (Staphylococcus aureus [25]): 128 µg/mL (≈ 88.2 µM); MIC (Staphylococcus aureus [26]): 64 µg/mL (≈ 44.1 µM); MIC (Staphylococcus aureus [27]): > 128 µg/mL; MIC (Staphylococcus aureus [28]): 64 µg/mL (≈ 44.1 µM); MIC (Staphylococcus aureus [29]): 128 µg/mL (≈ 88.2 µM); MIC (Staphylococcus aureus [30]): 128 µg/mL (≈ 88.2 µM); MIC (Enterococcus faecalis [31]): > 128 µg/mL; MIC (Candida albicans): > 64 µg/mL; MIC [32]: 64 µg/mL (≈ 44.1 µM) |
